Values quoted from earlier work, collected in PMC6394493 (Cancer Chemotherapy and Pharmacology, 2018).

System: pS6
Set-up: method as in PMID 25673697
Settings: patients with advanced solid tumors; cited from earlier work

CO[C@H]1C[C@@H]2CC[C@@H](C)[C@@](O)(O2)C(=O)C(=O)N2CCCC[C@H]2C(=O)O[C@H]([C@H](C)C[C@@H]2CC[C@@H](OCCO)[C@H](OC)C2)CC(=O)[C@H](C)/C=C(\C)[C@@H](O)[C@@H](OC)C(=O)[C@H](C)C[C@H](C)/C=C/C=C/C=C/1C [everolimus]
changes in pS6 in skin biopsies: induce changes in pS6
